Experimental data reported in patent US9586952B2, “Polycyclic estrogen receptor modulators and uses thereof” (SERAGON PHARMACEUTICALS, INC., priority 2013, dated 2017).

Tests used:
MCF-7 cells = assay: MCF7 Viability Assay (Breast Cancer Cell Viability Assay); type: cell-based; details: 5 days' compound exposure, CellTiter-Glo; for IC50: Homo sapiens, MCF7, 120 h
Protocol: MCF-7 cells were adjusted to a concentration of 20,000 cells per mL in RPMI containing 10% FBS and 20 mM HEPES. 16 microliters of the cell suspension (320 cells) was added to each well of a 384 well plate, and the cells were incubated overnight to allow the cells to adhere. The following day an eleven point, serial semilog dilution of each compound was added to the cells in 16 μL at a final concentration ranging from 0.3-0.000003 μM. After 5 days' compound exposure, 16 μL of CellTiter-GLo (Promega, Madison Wis.) was added to the cells, and the relative luminescence units (RLUs) of each well were determined. CellTiter-Glo added to 32 μL of medium without cells was used to obtain a background value. The Percent viability of each sample was determined as follows: (RLU sample-RLU background/RLU untreated cells-RLU background)×100=% viability.

ER-α = target: T1, ER-α (Homo sapiens, UniProt P03372); assay: Breast Cancer Cell ER-α In Cell Western Assay (SP1); type: cell-based; details: MCF-7 cells, 4 or 24 hr post compound addition, SP1 antibody; for Emax: MCF7, read-out: ER-α In Cell Western Assay (SP1) Max Response; for DC50: read-out: ER-α In Cell Western Assay (SP1) IC50
T1 construct: endogenous in cells; host or cells: MCF-7
T1 sequence (P03372 1-595): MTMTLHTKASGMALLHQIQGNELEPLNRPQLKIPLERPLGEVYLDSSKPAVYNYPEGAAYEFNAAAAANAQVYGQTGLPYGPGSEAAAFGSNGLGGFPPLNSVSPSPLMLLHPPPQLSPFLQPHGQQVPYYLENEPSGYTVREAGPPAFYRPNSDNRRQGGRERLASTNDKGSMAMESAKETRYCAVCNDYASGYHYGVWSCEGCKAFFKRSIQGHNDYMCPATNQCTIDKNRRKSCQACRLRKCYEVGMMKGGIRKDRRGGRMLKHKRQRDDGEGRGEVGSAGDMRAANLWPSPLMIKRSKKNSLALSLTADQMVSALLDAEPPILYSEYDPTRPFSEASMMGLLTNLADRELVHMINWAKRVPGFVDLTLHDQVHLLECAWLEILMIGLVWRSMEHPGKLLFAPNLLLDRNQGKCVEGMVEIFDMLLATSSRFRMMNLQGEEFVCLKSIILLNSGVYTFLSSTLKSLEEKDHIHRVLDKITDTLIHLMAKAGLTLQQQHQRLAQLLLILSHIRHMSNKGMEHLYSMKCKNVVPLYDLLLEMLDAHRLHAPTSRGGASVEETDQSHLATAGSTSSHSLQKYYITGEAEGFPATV
Protocol: MCF-7 cells were adjusted to a concentration of 200,000 cells per mL in RPMI containing 10% charcoal-stripped FBS and 20 mM HEPES. 16 microliters of the cell suspension (3200 cells) was added to each well of a poly-D-lysine 384 well plate, and the cells were incubated overnight to allow the cells to adhere. The following day an eleven point, serial semilog dilution of each compound was added to the cells in 16 μL at a final concentration ranging from 0.3-0.000003 μM. At 4 or 24 hr post compound addition, the cells were fixed (10% formalin in PBS) for 20 minutes. Cells were permeablized in PBS 0.1% Triton and blocked with LICOR blocking buffer (50 μl/well, 90′). The wells were then incubated overnight at 4° C. with SP1 rabbit monoclonal Ab (Thermo Scientific) diluted 1:1000 in LICOR blocking buffer/0.1% Tween-20. Wells which were treated with blocking buffer with Tween but no antibody were used as a background control. Wells were washed with 0.1% Tween-20/PBS and then incubated in goat anti-rabbit IRDye™ 800 CW (LICOR Inc.; 1:10000) and DRAQ5 DNA dye (1:2000 for 2 mM stock) diluted in LICOR blocking buffer containing 0.1% Tween-20 and 0.01% SDS for 60 minutes. Cells were washed (50 μl/well, 5′ each) in 0.1% Tween-20/PBS. Plates were scanned on a LICOR Odyssey infrared imaging system. Integrated intensities in the 800 nm channel and 700 nm channel were measured to determine levels of ER and DNA respectively. Percent ER levels were determined as follows: (Integrated intensity 800 nm sample/integrated intensity 700 nm sample)/(Integrated intensity 800 nm untreated cells/integrated intensity 700 nm untreated cells)×100=% ER levels.

SMILES	MCF7 Viability Assay Max Response (MCF-7 cells)	IC50 (MCF-7 cells) [nM]	Emax (ER-α) [%]	DC50 (ER-α) [nM]
COc1cc(C)c(/C(=C(\c2ccc(/C=C/C(=O)O)cc2)c2ccc(N3CCOCC3)cc2)C2CCC2)cn1 [Example 39, (E)-3-(4-((E)-2-Cyclobutyl-2-(6-methoxy-4-methylpyridin-3-yl)-1-(4-morpholinophenyl)vinyl)phenyl)acrylic acid]	++ (++ = a single % value ≧ 40%)	≤ 100	≥ 40	≤ 100
CC/C(=C(/c1ccc(/C=C/C(=O)O)cc1)c1ccc(-c2cnn(C)c2)cc1)c1ccccc1 [Example 19, (E)-3-(4-((E)-1-(4-(1-Methyl-1H-pyrazol-4-yl)phenyl)-2-phenylbut-1-en-1-yl)phenyl)acrylic acid]	++ (++ = a single % value ≧ 40%)	≤ 100	≥ 40	≤ 100
N#Cc1ccc(/C(=C(\c2ccc(/C=C/C(=O)O)cc2)c2ccc(-c3cncs3)cc2)C2CCC2)c(Cl)c1 [Example 5, (E)-3-(4-((E)-2-(2-Chloro-4-cyanophenyl)-2-cyclobutyl-1-(4-(thiazol-5-yl)phenyl)vinyl)phenyl)acrylic acid]	++ (++ = a single % value ≧ 40%)	≤ 100	≥ 40	≤ 100
N#Cc1cc(Cl)ccc1/C(=C(\c1ccc(/C=C/C(=O)O)cc1)c1ccc(-c2cn[nH]c2)cc1)C1CCC1 [Example 44, (E)-3-(4-((E)-1-(4-(1H-Pyrazol-4-yl)phenyl)-2-(4-chloro-2-cyanophenyl)-2-cyclobutylvinyl)phenyl)acrylic acid]	++ (++ = a single % value ≧ 40%)	≤ 100	≥ 40	≤ 100
CC/C(=C(/c1ccc(/C=C/C(=O)O)cc1)c1ccc(-c2cccnc2)cc1)c1ccccc1 [Example 14, (E)-3-(4-((E)-2-Phenyl-1-(4-(pyridin-3-yl)phenyl)but-1-en-1-yl)phenyl)acrylic acid]	++ (++ = a single % value ≧ 40%)	> 100	≥ 40	≤ 100
CC/C(=C(/c1ccc(/C=C/C(=O)O)cc1)c1ccc(-c2cncs2)cc1)c1ccccc1 [Example 9, (E)-3-(4-((E)-2-Phenyl-1-(4-(thiazol-5-yl)phenyl)but-1-en-1-yl)phenyl)acrylic acid]	++ (++ = a single % value ≧ 40%)	≤ 100	≥ 40	≤ 100
COc1ccc(/C(=C(\c2ccc(/C=C/C(=O)O)cc2)c2ccc(-c3cncs3)cc2)C2CCC2)c(C)c1 [Example 54, (E)-3-(4-((E)-2-Cyclobutyl-2-(4-methoxy-2-methylphenyl)-1-(4-(thiazol-5-yl)phenyl)vinyl)phenyl)acrylic acid]	++ (++ = a single % value ≧ 40%)	≤ 100	≥ 40	≤ 100
O=C(O)/C=C/c1ccc(/C(=C(\c2ncccc2Cl)C2CCC2)c2ccc(N3CCOCC3)cc2)cc1 [Example 43, (E)-3-(4-((E)-2-(3-Chloropyridin-2-yl)-2-cyclobutyl-1-(4-morpholinophenyl)vinyl)phenyl)acrylic acid]	++ (++ = a single % value ≧ 40%)	≤ 100	≥ 40	≤ 100
CN(C)CCn1cc(-c2ccc(/C(=C(/c3ccccc3)C3CCC3)c3ccc(/C=C/C(=O)O)cc3)cc2)cn1 [Example 70, (E)-3-(4-((E)-2-Cyclobutyl-1-(4-(1-(2-(dimethylamino)ethyl)-1H-pyrazol-4-yl)phenyl)-2-phenylvinyl)phenyl)acrylic acid]	++ (++ = a single % value ≧ 40%)	≤ 100	≥ 40	≤ 100
Fc1ccc(/C(=C(\c2ccc(/C=C/c3nn[nH]n3)cc2)c2ccc(-c3cn[nH]c3)cc2)C2CCC2)c(Cl)c1 [Example 71, 5-((E)-4-((E)-1-(4-(1H-Pyrazol-4-yl)phenyl)-2-(2-chloro-4-fluorophenyl)-2-cyclobutylvinyl)styryl)-2H-tetrazole]	++ (++ = a single % value ≧ 40%)	≤ 100	≥ 40	≤ 100
O=C(O)/C=C/c1ccc(/C(=C(\c2ccc(C(F)(F)F)cc2Cl)C2CCC2)c2ccc(N3CCOCC3)cc2)cc1 [Example 48, (E)-3-(4-((E)-2-(2-Chloro-4-(trifluoromethyl)phenyl)-2-cyclobutyl-1-(4-morpholinophenyl)vinyl)phenyl)acrylic acid]	++ (++ = a single % value ≧ 40%)	≤ 100	≥ 40	≤ 100
O=C(O)/C=C/c1ccc(/C(=C(\c2ccccc2)C2CCC2)c2ccc(-c3cncs3)cc2)cc1 [Example 13, (E)-3-(4-((E)-2-Cyclobutyl-2-phenyl-1-(4-(thiazol-5-yl)phenyl)vinyl)phenyl)acrylic acid]	++ (++ = a single % value ≧ 40%)	≤ 100	≥ 40	≤ 100
O=C(O)/C=C/c1ccc(/C(=C(\c2ccncc2Cl)C2CCC2)c2ccc(-c3cncs3)cc2)cc1 [Example 34, (E)-3-(4-((E)-2-(3-Chloropyridin-4-yl)-2-cyclobutyl-1-(4-(thiazol-5-yl)phenyl)vinyl)phenyl)acrylic acid]	++ (++ = a single % value ≧ 40%)	≤ 100	≥ 40	≤ 100
O=C(O)/C=C/c1ccc(/C(=C(\c2ncc(C(F)(F)F)cc2Cl)C2CCC2)c2ccc(-c3cn[nH]c3)cc2)cc1 [Example 58, (E)-3-(4-((E)-1-(4-(1H-Pyrazol-4-yl)phenyl)-2-(3-chloro-5-(trifluoromethyl)pyridin-2-yl)-2-cyclobutylvinyl)phenyl)acrylic acid]	++ (++ = a single % value ≧ 40%)	≤ 100	≥ 40	≤ 100
COc1ccc(/C(=C(\c2ccc(/C=C/C(=O)O)cc2)c2ccc(-c3nn[nH]n3)cc2)C2CCC2)c(Cl)c1 [Example 50, (E)-3-(4-((E)-1-(4-(2H-Tetrazol-5-yl)phenyl)-2-(2-chloro-4-methoxyphenyl)-2-cyclobutylvinyl)phenyl)acrylic acid]	++ (++ = a single % value ≧ 40%)	> 100	≥ 40	> 100
O=C(O)/C=C/c1ccc(/C(=C(\c2ccc(F)cc2Cl)C2CCC2)c2ccc(-c3cnn(CCO)c3)cc2)cc1 [Example 69, (E)-3-(4-((E)-2-(2-Chloro-4-fluorophenyl)-2-cyclobutyl-1-(4-(1-(2-hydroxyethyl)-1H-pyrazol-4-yl)phenyl)vinyl)phenyl)acrylic acid]	++ (++ = a single % value ≧ 40%)	≤ 100	≥ 40	≤ 100
CC/C(=C(/c1ccc(/C=C/C(=O)O)cc1)c1ccc(-c2cncs2)cc1)c1ccc2occc2c1 [Example 31, (E)-3-(4-((E)-2-(Benzofuran-5-yl)-1-(4-(thiazol-5-yl)phenyl)but-1-en-1-yl)phenyl)acrylic acid]	++ (++ = a single % value ≧ 40%)	≤ 100	≥ 40	≤ 100
